Consider six compounds from ChEMBL document CHEMBL3046180, “Antifungal activity of some diaryl ethers” (2007).

Calls of active or inactive are those of the source. The calls are words filed in the database; no cut-off is given here.

In test [1] the test system is Fusarium graminearum. Put plainly: Growth inhibition of Fusarium graminearum at 500 ug/ml after 4 days by poisoned food technique. Format: functional. To be noted: 96 h, read-out: GI.
The subject of test [2] is Alternaria alternata. In words: Growth inhibition of Alternaria alternata at 50 ug/ml after 4 days by poisoned food technique. As to conditions: 96 h, read-out: GI. Format: functional.
In test [3] the test system is Alternaria brassicae. Put plainly: Growth inhibition of Alternaria brassicae at 50 ug/ml after 4 days by poisoned food technique. Format: functional. As to conditions: 96 h, read-out: GI.
The test system of test [4] is Fusarium oxysporum f. sp. vasinfectum. Put plainly: Growth inhibition of Fusarium oxysporum f. sp. vasinfectum at 500 ug/ml after 4 days by poisoned food technique. Format: functional. To be noted: 96 h, read-out: GI.
In test [5] the test system is Pyricularia oryzae. In words: Growth inhibition of Magnaporthe oryzae at 500 ug/ml after 4 days by poisoned food technique. Format: functional. To be noted: 96 h, read-out: GI.
In test [6] the test system is Bipolaris sorokiniana. Put plainly: Growth inhibition of Bipolaris sorokiniana at 50 ug/ml after 4 days by poisoned food technique. Format: functional. As to conditions: 96 h, read-out: GI.
The subject of test [7] is Pyricularia oryzae. Put plainly: Growth inhibition of Magnaporthe oryzae at 50 ug/ml after 4 days by poisoned food technique. Format: functional. As to conditions: 96 h, read-out: GI.
Test [8] deals with Alternaria alternata. Put plainly: Growth inhibition of Alternaria alternata at 500 ug/ml after 4 days by poisoned food technique. Format: functional. To be noted: 96 h, read-out: GI.
The test system of test [9] is Fusarium graminearum. Put plainly: Antifungal activity against Fusarium graminearum assessed as mycelial growth inhibition at 250 to 500 ug/ml after 4 days by poisoned food technique. Format: functional, organism-based.
Test [10] relates to Alternaria brassicae. Put plainly: Growth inhibition of Alternaria brassicae at 500 ug/ml after 4 days by poisoned food technique. Format: functional. As to conditions: 96 h, read-out: GI.
In test [11] the test system is Fusarium oxysporum f. sp. cucumerinum. In words: Growth inhibition of Fusarium oxysporum f. sp. cucumerinum at 50 ug/ml after 4 days by poisoned food technique. Format: functional. As to conditions: 96 h, read-out: GI.
Test [12] concerns Fusarium oxysporum f. sp. vasinfectum. In words: Growth inhibition of Fusarium oxysporum f. sp. vasinfectum at 50 ug/ml after 4 days by poisoned food technique. Format: functional. As to conditions: 96 h, read-out: GI.
Test [13] deals with Fusarium graminearum. Put plainly: Growth inhibition of Fusarium graminearum at 50 ug/ml after 4 days by poisoned food technique. Format: functional. To be noted: 96 h, read-out: GI.
For test [14], the system named is Bipolaris sorokiniana. Put plainly: Growth inhibition of Bipolaris sorokiniana at 500 ug/ml after 4 days by poisoned food technique. Format: functional. To be noted: 96 h, read-out: GI.
In test [15] the test system is Fusarium oxysporum f. sp. cucumerinum. In words: Growth inhibition of Fusarium oxysporum f. sp. cucumerinum at 500 ug/ml after 4 days by poisoned food technique. Format: functional. To be noted: 96 h, read-out: GI.

As to `O=[N+]([O-])c1ccccc1Oc1ccccc1`, the inhibition of growth at 500 µg/mL in the test with Fusarium graminearum [1] worked out at 94%; in [4], 70.9%; in the test on Pyricularia oryzae [5], 92%; in the test with Alternaria alternata [8] it was 95.3%; in the test on Alternaria brassicae [10], 87.9%; with Bipolaris sorokiniana [14], 30.2%. Further, the inhibition of growth at 500 µg/mL in test [15] came out at 65.3%. The inhibition of growth at 50 µg/mL was determined as 62.2% in the test with Alternaria alternata [2]; 79% with Alternaria brassicae [3]; 95% in the test on Bipolaris sorokiniana [6]; 58% in the test on Pyricularia oryzae [7]; 55.6% in test [11]; 70.1% in [12]. The inhibition of growth at 50 µg/mL with Fusarium graminearum [13] was 64.9%. The “growth inhibition (GI)” value in the test with Fusarium graminearum [9] is “Active”.
For the compound `O=[N+]([O-])c1ccc(Oc2ccccc2[N+](=O)[O-])cc1` [2,4'-OXYBIS(NITROBENZENE)], the inhibition of growth at 500 µg/mL in the test with Fusarium graminearum [1] was 68.7%; in [4], 42.7%; in the test with Pyricularia oryzae [5], 47.1%; with Alternaria alternata [8], 56.3%; with Alternaria brassicae [10], 49.6%; in the test with Bipolaris sorokiniana [14] it was 35.3%. Moreover, the inhibition of growth at 500 µg/mL in [15] was 33.3%. Further, the inhibition of growth at 50 µg/mL came to 49.3% with Alternaria alternata [2]; 8.5% with Alternaria brassicae [3]; 42.2% in the test on Bipolaris sorokiniana [6]; 31.4% in the test on Pyricularia oryzae [7]; 9.3% in test [11]; 19.3% in test [12]. The inhibition of growth at 50 µg/mL in the test on Fusarium graminearum [13] stood at 66.2%.
Take `O=[N+]([O-])c1ccc(Oc2ccccc2Cl)cc1`: the inhibition of growth at 500 µg/mL with Fusarium graminearum [1] is 92.8%; in test [4], 55.6%; in the test with Pyricularia oryzae [5], 77.5%; with Alternaria alternata [8], 81.9%; in the test on Alternaria brassicae [10], 65.3%; in the test on Bipolaris sorokiniana [14], 66%. Further, in test [15], the inhibition of growth at 500 µg/mL worked out at 75.5%. Moreover, the inhibition of growth at 50 µg/mL with Alternaria alternata [2] came to 60.4%; with Alternaria brassicae [3] it was 36%; in the test on Bipolaris sorokiniana [6], 89.5%; with Pyricularia oryzae [7] it was 47.8%; in [11], 38.8%; in test [12], 47.5%. Moreover, the inhibition of growth at 50 µg/mL in the test with Fusarium graminearum [13] was determined as 79.5%.
For `O=[N+]([O-])c1ccc(Oc2ccc(Cl)cc2)cc1`, the inhibition of growth at 500 µg/mL stood at 66.8% in the test on Fusarium graminearum [1]; 43.4% in [4]; 63.8% in the test on Pyricularia oryzae [5]; 61.3% in the test on Alternaria alternata [8]; 47.2% with Alternaria brassicae [10]; 74.3% with Bipolaris sorokiniana [14]. Also, the inhibition of growth at 500 µg/mL in test [15] is 38%. Further, the inhibition of growth at 50 µg/mL with Alternaria alternata [2] was determined as 47.4%; in the test with Alternaria brassicae [3], 42.7%; with Bipolaris sorokiniana [6], 78.1%; in the test with Pyricularia oryzae [7], 47.6%; in test [11], 34.1%; in test [12] it was 41.4%. Further, the inhibition of growth at 50 µg/mL with Fusarium graminearum [13] was 63%.
In the case of `Cc1cccc(Oc2ccc([N+](=O)[O-])cc2)c1`, the inhibition of growth at 500 µg/mL with Fusarium graminearum [1] came to 92.4%; in [4], 74.3%; in the test on Pyricularia oryzae [5], 60.3%; in the test with Alternaria alternata [8], 61.2%; in the test on Alternaria brassicae [10] it was 52.8%; in the test with Bipolaris sorokiniana [14] it was 32%. Moreover, in [15], the inhibition of growth at 500 µg/mL was found to be 64.6%. Also, the inhibition of growth at 50 µg/mL in the test with Alternaria alternata [2] was 48.4%; in the test on Alternaria brassicae [3], 37.3%; in the test with Bipolaris sorokiniana [6] it was 44.4%; in the test on Pyricularia oryzae [7], 39.2%; in test [11], 57.9%; in test [12], 65.1%. Further, in the test on Fusarium graminearum [13], the inhibition of growth at 50 µg/mL stood at 62.8%.
In the case of `O=[N+]([O-])c1ccc(Oc2ccccc2)cc1`, the inhibition of growth at 500 µg/mL came to 87.4% in the test with Fusarium graminearum [1]; 83.4% in test [4]; 81.9% in the test on Pyricularia oryzae [5]; 83.8% in the test on Alternaria alternata [8]; 76% with Alternaria brassicae [10]; 73% in the test on Bipolaris sorokiniana [14]. Also, the inhibition of growth at 500 µg/mL in test [15] stood at 72.9%. The inhibition of growth at 50 µg/mL in the test with Alternaria alternata [2] was determined as 66.8%; in the test on Alternaria brassicae [3], 55.5%; in the test on Bipolaris sorokiniana [6], 87.2%; in the test on Pyricularia oryzae [7], 48%; in test [11], 61.2%; in [12] it was 81.8%. For the same compound, in the test on Fusarium graminearum [13], the inhibition of growth at 50 µg/mL was 71.6%.
